| Structure (SMILES) | melting point |
| --- | --- |
| Oc1ccc2[nH]cc(CCN3CCC(O)(c4ccccc4)CC3)c2c1 | 150 °C |
| O=CNc1nc(S)n[nH]1 | 260 to 262 °C |
| CC(C)C[C@@H](C(=O)O)n1sc2ccc(F)cc2c1=O | 161 to 162 °C |
| CCOC(=O)c1cn(C2CC2)c2nc(N3CC(C)C(N)C3)c(F)cc2c1=O (centres undefined) | 148 to 150 °C |
| CCOC(=O)CCc1c(OC)cncc1OC | 66 to 67 °C |
| CCC(CC)(CC(=O)Nc1cccc(/C=C/c2nc(C3CCCC3)cs2)c1)C(=O)O | 172 to 174 °C |
| CC1(C)CC(NC(=O)c2cc(N)cc(N)c2)CC(C)(C)N1 | 188 to 190 °C |
| C=C(C)C(=O)OC1=CC(C(=O)O)C(O)(C(C)=O)C=C1 (centres undefined) | 150 °C |
| CC(C)Nc1ccc(-c2ncc(C(F)(F)F)cc2Cl)cc1N | 116 to 117 °C |
| CC12CCC(O)CC1=CCC1C2C(O)CC2(C)C1CCC21OCCO1 (centres undefined) | 123 to 125 °C |
| CC1CC(=O)N(CCCCN2CCN(c3ncccn3)CC2)S(=O)(=O)N1 (centres undefined) | 115 to 117 °C |
| Cc1nc2c(C=O)cccn2c1C | 145 to 148 °C |
| CCOC(=O)C(C#N)=CN(C)C1CCCCC1 | 71 to 72 °C |
| CCn1c(Br)cc2c(C)nc3c(Br)cnn3c21 | 135 to 137 °C |
| COC(CNc1nc(C)nc2cccc(C)c12)OC | 48 to 49 °C |
| CNC(=S)C1(c2cncc(Br)c2)CCCCC1=O (centres undefined) | 201 to 203 °C |
| O=C(O)CCCCCCCCCC=Cc1ccccc1 | 27 to 27.5 °C |
| CCS(=O)(=O)c1cc(S(N)(=O)=O)sc1S(=O)(=O)CC | 176 to 177 °C |
| CC(=O)NCc1c(C)cc(CCl)cc1C | 193 to 194 °C |
| CC(=O)Nc1ccc2[nH]c(CO)cc2c1 | 161 °C |
| CCC12CCC3=C(CCc4cc(OC)ccc43)C1CCC21OCCO1 (centres undefined) | 135 to 137 °C |
| CC(C)C(=O)NC1CCc2c(c3cc(C#N)ccc3n2Cc2ccccc2C(F)(F)F)C1 (centres undefined) | 222 to 225 °C |
| CCOC(=O)n1ccc(=O)c2cnc(N3CCN(CC)CC3)nc21 | 161 °C |

| Structure (SMILES) | melting point |
| --- | --- |
| CCCCc1c(C(=O)OCC)cc(OC)c2ccc(OC)cc12 | 44 to 45 °C |
| COC(=O)NNc1n[nH]c2cc(Cl)ccc12 | 223 to 224 °C |
| CCCCCCCCCCCCCCC(=O)C(=O)NCCCC(=O)OC(C)(C)C | 61 to 62 °C |
| CSc1ncc(Cc2cccs2)c(=O)[nH]1 | 170 to 172 °C |
| O=C(O)c1cn(C2CC2)c2c(F)c(N3CCC(n4nncc4C(=O)O)C3)c(F)cc2c1=O (centres undefined) | 214 °C |
| CCCCOC1OC(CO)C(O)C(O)C1(O)N(Cc1cccc(C)c1C)C(=O)N(CCCl)N=O (centres undefined) | 90 to 92 °C |
| CCCCCN1CC[C@@H](c2ccccc2Br)[C@H](CO)C1 (racemic) | 119 to 120 °C |
| COC1(Cl)C=CC=CC1Oc1c(Cl)ncnc1Cl (centres undefined) | 88 to 89 °C |
| CN[C@@H](C)[C@@H]1CCN(c2c(F)cc3c(=O)[nH]c(=O)n(C4CC4)c3c2C)C1 | > 250 °C |
| COC(=O)c1cc(O)cc(Cl)c1O | 126 °C |
| CN(C)c1nc(Cl)nc(Cl)n1 | 123 to 124 °C |
| CCOC(=O)c1cn(C)c2ccc(F)cc2c1=O | 193 to 195 °C |
| CC(C)C(=O)NC1CCc2[nH]c3cc4c(cc3c2C1)OCO4 (centres undefined) | 198 to 200 °C |
| CC(=O)Nc1ccc(C=CC2CSC(=O)NN2)cc1 (centres undefined) | 235 to 240 °C |
| CC12CC(F)C3c4ccc(O)cc4CC(CCCCCN4CCCC4CSCCCC(F)(F)C(F)(F)F)C3C1CCC2O (centres undefined) | 174 to 176 °C |
| CCCc1c(OCCCSc2nnc(SCC(=O)OCC)s2)ccc(C(C)=O)c1O | 71 to 72.5 °C |
| CCCC12CCC(=O)C=C1c1c(cc(CC(=O)O)c(Cl)c1Cl)O2 (centres undefined) | 248 to 250 °C |
| CCOC(=O)c1conc1-c1cccc(C#N)c1 | 135 to 137 °C |
| C#CCN(c1ccc(C(=O)OC(C)(C)C)c(F)c1)C1CCc2cc3nc(C)[nH]c(=O)c3cc21 (racemic) | 248 to 250 °C |
| O=C(O)CCCOc1cccc2occc12 | 91 to 93 °C |
| COc1ccc(-c2ccc(C(=O)NCCOc3ccc(CC(Oc4ccc(C(C)C)cc4)C(=O)O)cc3)cn2)cc1 (centres undefined) | 166 to 167 °C |
| N#CC(=CNC1CC1)C(=O)c1ccc(Cl)cc1Cl | 93 to 94 °C |

Now from value to compound:

| melting point | Structure (SMILES) |
| --- | --- |
| > 300 °C | Oc1ccc(-c2ccc3cc(O)nc-3o2)cc1 |
| 99 to 103 °C | COc1ccc(C(O)(Cc2ccncc2)c2ccncc2)cc1OC1CCCC1 (centres undefined) |
| 153 to 155 °C | COC(=O)NC1=NCC(c2ccccc2F)N1C (centres undefined) |
| 137 to 138 °C | CNC(=O)c1cc(-c2ccc(OC)cc2)nn(CC2CC2)c1=O |
| 138 °C | CCCNC(=O)N1c2ccc(S(=O)(=O)n3cc(-c4ccccc4)[nH]c3=O)cc2CC1C (centres undefined) |
| 131 to 133 °C | CC1(C)CC(=O)C=C(OC(=O)c2cccc3nnsc23)C1 |
| 98 to 99 °C | CCc1oc2ccccc2c1C(O)c1ccccc1 (centres undefined) |
| 221 to 223 °C | COC(=O)c1ccccc1C=CC(=O)C=Cc1ccccc1C(=O)OC |
| 138 to 140 °C | Cc1cc2c(Oc3ccccc3Cl)cccc2[nH]1 |
| 116 °C | CCOC(=O)Nc1ccc(C(=O)c2ccccc2)cc1COC1CCCCO1 (centres undefined) |
| 201 to 202 °C | CNC(=S)C1(c2cccnc2)CCCCC1=CCOc1ccc([N+](=O)[O-])cc1 (centres undefined) |
| 245 to 246 °C | CN1CCN(c2ccc(N/C=C3\CN=Cc4ccccc43)cc2)CC1 |
| 221 to 222 °C | COC(=O)c1cccc2[nH]c(-c3ccc(Cl)cc3)c(C=O)c12 |
| 212 to 214 °C | CCOc1ccc2c(c1)C(c1ccccc1Cl)(N(C)C)C(=O)N2S(=O)(=O)c1ccc(NC(=O)N(CC)CC)cc1OC (centres undefined) |
| 162 to 164 °C | CC(C)(C)[Si](C)(C)Oc1ccc2c(c1)OC(O)c1c-2sc2cc(O[Si](C)(C)C(C)(C)C)ccc12 (centres undefined) |
| 108 to 110 °C | CC(C)Oc1cc(COc2cc(CCC(=O)O)n(-c3ccccc3)n2)cc(COc2ccc(Cl)cc2Cl)c1 |
| 153 to 155 °C | O=C(O)c1ccc(NCCCCOc2ccccc2)cc1 |
| 207 to 209 °C | N#CC(C(=O)Nc1ccccc1)C(=O)c1ccc[nH]1 (centres undefined) |
| 157 to 160 °C | CCN1CCN(Cc2ccc(-c3ccc4c(Nc5cc(OC)c(Cl)cc5Cl)c(C#N)cnc4c3)o2)CC1 |
| 163 to 165 °C | Oc1ccc(Nc2nc(NCc3ccco3)nc(N3CCOCC3)n2)cc1 |

| melting point | Structure (SMILES) |
| --- | --- |
| 240 to 241 °C | CCOc1c(C)cccc1-c1nc2ccc(C(=O)O)cc2c(=O)[nH]1 |
| 146 °C | C=CCOc1ccc(C(=O)Oc2ccc(O)cc2)cc1 |
| 165 to 166 °C | CCOC(=O)COc1ccc(C(=O)Nc2ccccc2Oc2cccc(-c3nnn[nH]3)c2)cc1 |
| 176 to 179 °C | COc1ccccc1NC1=NN(S(=O)(=O)c2ccc(C)cc2)CC1 |
| 204 to 206 °C | COCOc1cc(F)ccc1-c1cc(-c2cccc(N)c2)c(C#N)c(NC(=O)c2ccco2)n1 |
| 149 to 150 °C | COc1ccc(C(=O)Nc2ccccc2)c(C)c1 |
| 264 to 265 °C | COc1ccc(-c2nc(-c3ccc(F)cc3)c(-c3ccncc3)[nH]2)cc1 |
| 39 to 41 °C | O=C(OCc1ccccc1)c1cc(Cl)nc(Cl)c1 |
| 45.6 to 46.8 °C | Cc1ccc(CCC(=O)C(=[N+]=[N-])C(=O)CCc2ccc(C)cc2)cc1 |
| 114 to 116 °C | CC1Cc2ccccc2CN(CO)C1=O (centres undefined) |
| 250 to 251 °C | CC(=O)c1c(C)c2c(C)[nH]c(-c3ccccc3)c2[nH]c1=O |
| 99 to 101 °C | O=c1oc(-c2ccccc2Cl)cc(O)c1SCc1ccccc1 |
| 204 to 207 °C | NC(=O)c1cn(Cc2ccccc2)c(CO)n1 |
| 88 to 89 °C | O=[N+]([O-])c1ccccc1-c1nnc(-c2ccc(C3OCCO3)cc2)o1 |
| 237 °C | CC(C)(N)c1ccc(-c2nc(Nc3ccc(F)c(Cl)c3)ncc2C#N)cc1 |
| 260 to 265 °C | O=C(Nc1n[nH]c(-c2ccc(F)cc2)c1-c1ccncc1)C(F)(F)F |
| 269 to 272 °C | OC1c2ccccc2-c2[nH]nc(-c3ccccc3)c21 (centres undefined) |
| > 310 °C | N#Cc1cnc2c(oc3ccccc32)c1O |
| 218 to 219 °C | N#Cc1ccc2nc(C(=O)NCc3cccc(CNC(=O)c4nc[nH]n4)c3)[nH]c(=O)c2c1 |
| 210 to 213 °C | Oc1ccc(-c2cc3cc(O)cc(CC(F)(F)F)c3o2)cc1 |

| melting point | Structure (SMILES) |
| --- | --- |
| 110 to 111 °C | O=C(Cc1ccccc1F)N1C(=O)OC[C@H]1c1ccccc1 |
| 116 to 118 °C | CCOC(=O)C=Cc1cc(OCc2ccccc2)ccc1-c1ccc(-c2cccc(C(F)(F)F)c2)c(C=O)c1 |
| 129 to 131 °C | Oc1cccc(C2CCCN2Cc2cccnc2)c1 (centres undefined) |
| 219 to 221 °C | CNc1nc(-c2cccc(NC(=O)c3ccc(OC)cc3)c2)c2cc(OC)c(OC)cc2n1 |
| 271 to 274 °C | CNc1cc(NS(=O)(=O)c2ccc(NC(C)=O)cc2)nc(N2CCCC2)n1 |
| 170 to 172 °C | CN1CCC(NC(=O)c2cc(Cl)cc3oc(-c4ccccc4)nc23)CC1 |
| 145 °C | CCOC(=O)C(C(=O)CC(C)C)C1c2ccccc2C(=O)N1c1ccc2ccc(Cl)nc2n1 (centres undefined) |
| 144 to 146 °C | O=C(O)C(Sc1nc2ccc(Cl)nc2s1)c1ccc(Cl)cc1 (centres undefined) |
| 227 to 230 °C | Nc1ccc(C=Cc2ccncn2)cc1 |
| 167 to 169 °C | N#CCNC(=O)C(Sc1nc2cc(Cl)ccc2s1)c1ccccc1 (centres undefined) |
| 150 °C | Cc1nc(-c2ccc(F)cc2)c(CO)c(C(C)C)c1C#N |
| 304 to 306 °C | O=c1c2c[nH]c3c(c-2nn1-c1ccccc1)COCC3 |
| 242 to 245 °C | CC(O)c1cc2c3ccccc3[nH]c(=O)n2n1 (centres undefined) |
| 112 to 115 °C | CCCCC(=O)N(CCCOCc1ccccc1)Cc1ccc(-c2ccccc2-c2nnn[nH]2)cc1 |
| 124 to 125 °C | COc1ccc(C(=O)c2ccc(OCc3ccccc3)cc2)c(O)c1 |
| 250 to 252 °C | O=C1CCC(N2C(=O)c3cccc(CNC(=O)Nc4cccc5ccccc45)c3C2=O)C(=O)N1 (centres undefined) |
| 134 to 136 °C | COc1ccc(F)cc1OCCN1C(=O)c2ccccc2C1=O |
| 293 to 295 °C | Oc1cc2c(cc1-c1nc3cc(-c4ccccc4)ccc3o1)oc1ccccc12 |
| 184 to 186 °C | CC(C)c1ccc(C(=O)NCCCCN2CCN(C(c3ccccc3)c3ccccc3)CC2)c(O)n1 |

From a melting point compilation (Tetko et al.; mined from patent text by program, amines drawn as free bases though some values may be those of a salt)
